Data on seven compounds can be found in patent publication US20230143604A1, “QW DOSING OF GIP RECEPTOR AGONIST PEPTIDE COMPOUNDS AND USES THEREOF” (TAKEDA PHARMACEUTICAL COMPANY LIMITED, priority 2020, published 2023).

The structures appear in SMILES notation. Starred links: 1 amine or outer side, 2 acyl side, 3 side chain; linkers in the order of their positions; H or OH if unused. Non-standard residues stand in square brackets, D forms with d. Residues, ends and D or L forms follow the SMILES beside them. Groups on a side chain read outwards from the residue. *: point of attachment. C18 diacid = O=C(O)CCCCCCCCCCCCCCCCC(=O)*; C17 diacid = O=C(O)CCCCCCCCCCCCCCCC(=O)*; γGlu = O=C(O)[C@H](CCC(=O)[*:2])N[*:1]; NMeY = CN[C@@H](Cc1ccc(O)cc1)C(=O)O; AEEA = NCCOCCOCC(=O)O; Aib = CC(C)(N)C(=O)O

This data set in a line: physchem. Put shortly: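 Solubility at pH 7.4 determined by stepwise addition of 200 mM phosphate buffer in 100 μL increments to 3 mg peptide, mixing briefly each time, until no insoluble material remained, then measured by liquid chromatography.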
[1] abbreviates: pH 7.4, aqueous buffer, pH 7.4 Phosphate Buffer - Solubility, 200 mM Phosphate buffer pH 7.4.

Regarding `CC[C@H](C)[C@H](NC(=O)[C@H](CO)NC(=O)[C@H](Cc1ccc(O)cc1)NC(=O)[C@H](CC(=O)O)NC(=O)[C@H](CO)NC(=O)[C@@H](NC(=O)[C@H](Cc1ccccc1)NC(=O)[C@@H](NC(=O)CNC(=O)[C@H](CCC(=O)O)NC(=O)C(C)(C)NC(=O)[C@@H](N)Cc1ccc(O)cc1)[C@@H](C)O)[C@@H](C)CC)C(=O)N[C@@H](C)C(=O)N[C@@H](CC(C)C)C(=O)N[C@@H](CC(=O)O)C(=O)N[C@@H](CCCCN)C(=O)NC(C)(C)C(=O)N[C@@H](C)C(=O)N[C@@H](CCC(N)=O)C(=O)N[C@@H](C)C(=O)N[C@@H](CCCCNC(=O)COCCOCCNC(=O)COCCOCCNC(=O)CC[C@H](NC(=O)CC[C@H](NC(=O)CCCCCCCCCCCCCCCC(=O)O)C(=O)O)C(=O)O)C(=O)N[C@@H](Cc1ccccc1)C(=O)N[C@H](C(=O)N[C@@H](CCC(=O)O)C(=O)N[C@@H](Cc1c[nH]c2ccccc12)C(=O)N[C@@H](CC(C)C)C(=O)N[C@@H](CC(C)C)C(=O)N[C@@H](C)C(=O)N[C@@H](CCC(N)=O)C(=O)N[C@@H](CCCNC(=N)N)C(=O)NCC(=O)O)C(C)C` [Compound 131] (H-Y[Aib]EGTFISDYSIALDK[Aib]AQAK([AEEA-AEEA-γGlu-γGlu-C17 diacid])FVEWLLAQRG-OH), the solubility is, setting by setting: (pH 7.4) at least 15 mg/mL; (pH 7.4, aqueous buffer) at least 30 mg/mL.

`CC[C@H](C)[C@H](NC(=O)[C@H](CO)NC(=O)[C@H](Cc1ccc(O)cc1)NC(=O)[C@H](CC(=O)O)NC(=O)[C@H](CO)NC(=O)[C@@H](NC(=O)[C@H](Cc1ccccc1)NC(=O)[C@@H](NC(=O)CNC(=O)[C@H](CCC(=O)O)NC(=O)C(C)(C)NC(=O)[C@H](Cc1ccc(O)cc1)NC)[C@@H](C)O)[C@@H](C)CC)C(=O)N[C@@H](C)C(=O)N[C@@H](CCCCNC(=O)COCCOCCNC(=O)COCCOCCNC(=O)CC[C@H](NC(=O)CC[C@H](NC(=O)CCCCCCCCCCCCCCCC(=O)O)C(=O)O)C(=O)O)C(=O)N[C@@H](CC(=O)O)C(=O)N[C@@H](CCCNC(=N)N)C(=O)NC(C)(C)C(=O)N[C@@H](C)C(=O)N[C@@H](CCC(N)=O)C(=O)NC(C)(C)C(=O)N[C@@H](CC(N)=O)C(=O)N[C@@H](Cc1ccccc1)C(=O)N[C@H](C(=O)N[C@@H](CC(N)=O)C(=O)N[C@@H](Cc1c[nH]c2ccccc12)C(=O)N[C@@H](CC(C)C)C(=O)N[C@@H](CC(C)C)C(=O)N[C@@H](C)C(=O)N[C@@H](CCC(N)=O)C(=O)N[C@@H](CCCNC(=N)N)C(=O)O)C(C)C` [Compound 7] (H-[NMeY][Aib]EGTFISDYSIAK([AEEA-AEEA-γGlu-γGlu-C17 diacid])DR[Aib]AQ[Aib]NFVNWLLAQR-OH): the solubility reads like this: (pH 7.4) at least 15 mg/mL; (pH 7.4, aqueous buffer) at least 30 mg/mL.

Under setting [1], `CC[C@H](C)[C@H](NC(=O)[C@H](CO)NC(=O)[C@H](Cc1ccc(O)cc1)NC(=O)[C@H](CC(=O)O)NC(=O)[C@H](CO)NC(=O)[C@@H](NC(=O)[C@H](Cc1ccccc1)NC(=O)[C@@H](NC(=O)CNC(=O)[C@H](CCC(=O)O)NC(=O)C(C)(C)NC(=O)[C@H](Cc1ccc(O)cc1)NC)[C@@H](C)O)[C@@H](C)CC)C(=O)N[C@@H](C)C(=O)N[C@@H](CCCCNC(=O)CNC(=O)CNC(=O)CNC(=O)CNC(=O)CNC(=O)CC[C@H](NC(=O)CCCCCCCCCCCCCCCC(=O)O)C(=O)O)C(=O)N[C@@H](CC(=O)O)C(=O)N[C@@H](CCCNC(=N)N)C(=O)NC(C)(C)C(=O)N[C@@H](C)C(=O)N[C@@H](CCC(N)=O)C(=O)NC(C)(C)C(=O)N[C@@H](CC(N)=O)C(=O)N[C@@H](Cc1ccccc1)C(=O)N[C@H](C(=O)N[C@@H](CC(N)=O)C(=O)N[C@@H](Cc1c[nH]c2ccccc12)C(=O)N[C@@H](CC(C)C)C(=O)N[C@@H](CC(C)C)C(=O)N[C@@H](C)C(=O)N[C@@H](CCC(N)=O)C(=O)N[C@@H](CCCNC(=N)N)C(=O)N1CCC[C@H]1C(=O)N[C@@H](CO)C(=O)N[C@@H](CO)C(=O)NCC(=O)N[C@@H](C)C(=O)N1CCC[C@H]1C(=O)N1CCC[C@H]1C(=O)N1CCC[C@H]1C(=O)N[C@@H](CO)C(N)=O)C(C)C` [Compound 260] came in with a solubility of under 6 mg/mL.

Take `CC[C@H](C)[C@H](NC(=O)[C@H](Cc1ccccc1)NC(=O)[C@@H](NC(=O)CNC(=O)[C@H](CCC(=O)O)NC(=O)C(C)(C)NC(=O)[C@@H](N)Cc1ccc(O)cc1)[C@@H](C)O)C(=O)N[C@@H](CO)C(=O)N[C@@H](CC(=O)O)C(=O)N[C@@H](Cc1ccc(O)cc1)C(=O)N[C@@H](CO)C(=O)N[C@H](C(=O)NC(C)(C)C(=O)N[C@@H](CC(C)C)C(=O)N[C@@H](CC(=O)O)C(=O)N[C@@H](CCCCN)C(=O)N[C@@H](C)C(=O)N[C@@H](CCCCNC(=O)COCCOCCNC(=O)COCCOCCNC(=O)CC[C@H](NC(=O)CCCCCCCCCCCCCCCCC(=O)O)C(=O)O)C(=O)N[C@@H](CCC(N)=O)C(=O)N[C@@H](CCC(N)=O)C(=O)N[C@@H](CC(=O)O)C(=O)N[C@@H](Cc1ccccc1)C(=O)N[C@H](C(=O)N[C@@H](CCC(=O)O)C(=O)N[C@@H](Cc1c[nH]c2ccccc12)C(=O)N[C@@H](CC(C)C)C(=O)N[C@@H](CC(C)C)C(=O)N[C@@H](C)C(=O)N[C@@H](CCC(N)=O)C(=O)N[C@@H](CCCNC(=N)N)C(=O)NCC(=O)O)C(C)C)[C@@H](C)CC` [Compound 169] (H-Y[Aib]EGTFISDYSI[Aib]LDKAK([AEEA-AEEA-γGlu-C18 diacid])QQDFVEWLLAQRG-OH): the solubility reads like this: (pH 7.4) at least 15 mg/mL; (pH 7.4, aqueous buffer) at least 30 mg/mL.

With `CC[C@H](C)[C@H](NC(=O)[C@H](CO)NC(=O)[C@H](Cc1ccc(O)cc1)NC(=O)[C@H](CC(=O)O)NC(=O)[C@H](CO)NC(=O)[C@@H](NC(=O)[C@H](Cc1ccccc1)NC(=O)[C@@H](NC(=O)CNC(=O)[C@H](CCC(=O)O)NC(=O)C(C)(C)NC(=O)[C@H](Cc1ccc(O)cc1)NC)[C@@H](C)O)[C@@H](C)CC)C(=O)N[C@@H](C)C(=O)N[C@@H](CCCCNC(=O)CNC(=O)CNC(=O)CNC(=O)CNC(=O)CNC(=O)CCCCCCCCCCCCCCCCC(=O)O)C(=O)N[C@@H](CC(=O)O)C(=O)N[C@@H](CCCNC(=N)N)C(=O)NC(C)(C)C(=O)N[C@@H](C)C(=O)N[C@@H](CCC(N)=O)C(=O)NC(C)(C)C(=O)N[C@@H](CC(=O)O)C(=O)N[C@@H](Cc1ccccc1)C(=O)N[C@H](C(=O)N[C@@H](CCC(=O)O)C(=O)N[C@@H](Cc1c[nH]c2ccccc12)C(=O)N[C@@H](CC(C)C)C(=O)N[C@@H](CC(C)C)C(=O)N[C@@H](C)C(=O)N[C@@H](CCC(N)=O)C(=O)N[C@@H](CO)C(=O)N1CCC[C@H]1C(=O)NCC(=O)O)C(C)C` [Compound 118], the solubility (pH 7.4) was at least 15 mg/mL and the solubility (pH 7.4, aqueous buffer) was at least 30 mg/mL.

As to `CC[C@H](C)[C@H](NC(=O)[C@H](CO)NC(=O)[C@H](Cc1ccc(O)cc1)NC(=O)[C@H](CC(=O)O)NC(=O)[C@H](CO)NC(=O)[C@@H](NC(=O)[C@H](Cc1ccccc1)NC(=O)[C@@H](NC(=O)CNC(=O)[C@H](CCC(=O)O)NC(=O)C(C)(C)NC(=O)[C@H](Cc1ccc(O)cc1)NC)[C@@H](C)O)[C@@H](C)CC)C(=O)N[C@@H](C)C(=O)N[C@@H](CC(C)C)C(=O)N[C@@H](CC(=O)O)C(=O)N[C@@H](CCCNC(=N)N)C(=O)NC(C)(C)C(=O)N[C@@H](C)C(=O)N[C@@H](CCC(N)=O)C(=O)NC(C)(C)C(=O)N[C@@H](CCCCNC(=O)COCCOCCNC(=O)COCCOCCNC(=O)CC[C@H](NC(=O)CC[C@H](NC(=O)CCCCCCCCCCCCCCCCC(=O)O)C(=O)O)C(=O)O)C(=O)N[C@@H](Cc1ccccc1)C(=O)N[C@H](C(=O)N[C@@H](CCC(=O)O)C(=O)N[C@@H](Cc1c[nH]c2ccccc12)C(=O)N[C@@H](CC(C)C)C(=O)N[C@@H](CC(C)C)C(=O)N[C@@H](C)C(=O)N[C@@H](CCC(N)=O)C(=O)N[C@@H](CO)C(=O)N1CCC[C@H]1C(=O)NCC(=O)O)C(C)C` [Compound 119] (H-[NMeY][Aib]EGTFISDYSIALDR[Aib]AQ[Aib]K([AEEA-AEEA-γGlu-γGlu-C18 diacid])FVEWLLAQSPG-OH), the solubility by setting is: (pH 7.4) at least 15 mg/mL; (pH 7.4, aqueous buffer) at least 30 mg/mL.

For the compound `CC[C@H](C)[C@H](NC(=O)[C@H](Cc1ccccc1)NC(=O)[C@@H](NC(=O)CNC(=O)[C@H](CCC(=O)O)NC(=O)C(C)(C)NC(=O)[C@H](Cc1ccc(O)cc1)NC)[C@@H](C)O)C(=O)N[C@@H](CO)C(=O)N[C@@H](CC(=O)O)C(=O)N[C@@H](Cc1ccc(O)cc1)C(=O)N[C@@H](CO)C(=O)N[C@H](C(=O)NC(C)(C)C(=O)N[C@@H](CC(C)C)C(=O)N[C@@H](CC(=O)O)C(=O)N[C@@H](CCCNC(=N)N)C(=O)NC(C)(C)C(=O)N[C@@H](C)C(=O)N[C@@H](C)C(=O)NC(C)(C)C(=O)N[C@@H](CCCCNC(=O)COCCOCCNC(=O)COCCOCCNC(=O)CC[C@H](NC(=O)CC[C@H](NC(=O)CCCCCCCCCCCCCCCCC(=O)O)C(=O)O)C(=O)O)C(=O)N[C@@H](Cc1ccccc1)C(=O)N[C@H](C(=O)N[C@@H](CC(N)=O)C(=O)N[C@@H](Cc1c[nH]c2ccccc12)C(=O)N[C@@H](CC(C)C)C(=O)N[C@@H](CC(C)C)C(=O)N[C@@H](C)C(=O)N[C@@H](CCC(N)=O)C(=O)N[C@@H](CO)C(=O)N1CCC[C@H]1C(=O)N[C@@H](CO)C(=O)N[C@@H](CO)C(=O)NCC(=O)N[C@@H](C)C(=O)N1CCC[C@H]1C(=O)N1CCC[C@H]1C(=O)N1CCC[C@H]1C(=O)N[C@@H](CO)C(N)=O)C(C)C)[C@@H](C)CC` [Compound 107] (H-[NMeY][Aib]EGTFISDYSI[Aib]LDR[Aib]AA[Aib]K([AEEA-AEEA-γGlu-γGlu-C18 diacid])FVNWLLAQSPSSGAPPPS-NH2), the solubility under setting [1] was at least 60 mg/mL and the solubility (pH 7.4, solubility in phosphate buffer at pH 7.4, 200 mM phosphate buffer pH 7.4) was at least 15 mg/mL.

In general, solubility refers to the dissolved amount per volume that the medium holds.
